Source: patent publication US10758467B2, “Highly substantive water-soluble UV absorbers and process for preparation thereof” (GALAXY SURFACTANTS LTD., priority 2018, dated 2020)

Columns and labels:
[1] = system: Propionibacterium acnesMTCC 1951; test: Minimum growth inhibitory concentration; assay type: cell-based, Propionibacterium acnes
Description: (§1) The doubly quaternized UV absorbers of Formula I (R═C8H17 to C22H45) according to the invention show decent antimicrobial properties. The minimum growth inhibitory concentrations against G +ve, G −ve bacteria and against the yeast for two compounds of Formula I of Example 3 and Example 4 are given in the Table III. This antimicrobial property is useful for preservation of personal care formulations. The antimicrobial activity against dandruff causing microorganism, Malassezia furfur is useful for hair care applications.

[2] = system: Malassezia furfur MTCC 1374; test: Minimum growth inhibitory concentration; assay type: cell-based
Description: as §1

[3] = system: Staphylococcus aureus ATCC6538; test: Minimum growth inhibitory concentration; assay type: cell-based
Description: as §1

[4] = system: Pseudomonas aeruginosa Immune type IV; test: Minimum growth inhibitory concentration; assay type: cell-based
Description: as §1

[5] = system: Escherichia coli ATCC 10142; test: Minimum growth inhibitory concentration; assay type: cell-based
Description: as §1

[6] = system: Candida albicans ATCC 10231; test: Minimum growth inhibitory concentration; assay type: cell-based
Description: as §1

[7] = UV absorption (molar extinction coefficient); assay type: physicochemical
[8] = Surface-active properties (surface tension of water, CMC); assay type: physicochemical
Protocol: They reduce the surface tension of water from 72 Mn/m to 35 Mn/m at 1.0% concentration, at 30° C. These quaternized UV absorbers behave like cationic surface active agents and can be easily titrated against an anionic surfactant as a standard for two-phase titration for the determination of active matter.
Critical micelle concentration at 25° C. is 2.29×10^−3 mM

[9] = Zeta potential (Zetasizer Nano, Malvern) and charge density; assay type: physicochemical; conditions: for Zeta potential: 1% dispersion
Description: Zeta potential of 1% dispersion of doubly quaternized UV absorber, Formula I, R═C18H37 and R1═OCH3 is found to be […] (Zetasizer Nano, Malvern). […] Also the high zeta potential (+46 mV) ensures the stability of colloidal formulations.
Molar extinction coefficient, ∈, in water: 19,700 mol^−1cm^−1 at 307 nm. Zeta potential: +46 mV, Charge density: 0.3066 meq/gram

Compound	minimum growth inhibitory concentration [1] [%]	minimum growth inhibitory concentration [2] [%]	minimum growth inhibitory concentration [3] [%]	minimum growth inhibitory concentration [4] [%]	minimum growth inhibitory concentration [5] [%]	minimum growth inhibitory concentration [6] [%]	other results
CCCCCCCCCCCC[N+](C)(C)CC(O)C[N+](C)(C)CCCNC(=O)C=Cc1ccc(OC)cc1.[Cl-].[Cl-] (stereo not shown) [Example 3, p-methoxy cinnamidopropyl (2-hydroxypropyl lauryl dimethyl ammonium chloride) dimonium chloride]	0.5	0.5	0.3	0.4	0.4	0.3	Molar extinction coefficient, ∈ ([7]; in water, at 305 nm): 19,500 mol^−1cm^−1
CCCCCCCCCCCCCCCCCC[N+](C)(C)CC(O)C[N+](C)(C)CCCNC(=O)/C=C/c1ccc(OC)cc1 (stereo not shown) [Example 4, p-methoxy cinnamidopropyl (2-hydroxypropyl stearyl dimethyl ammonium chloride) dimonium chloride]	0.4	0.6	0.2	0.4	0.3	0.3	Surface effectiveness [8]: 34.2 mN/m; surface efficiency (−log C20) [8]: 6.23; Critical micelle concentration ([8]; at 25° C.): 0.00229 mM; Molar extinction coefficient, ∈ ([7]; in water, at 307 nm): 19,700 mol^−1cm^−1; Charge density [9]: 0.3066 meq/gram; Zeta potential [9]: +46 mV; Zeta potential ([9]; listed as Formula I, R═C18H37 and R1═OCH3): +47 mV
COc1ccc(C=CC(=O)NCCC[N+](C)(C)CC(O)C[N+](C)(C)C)cc1.[Cl-].[Cl-] (stereo not shown) [Example 2, p-methoxy cinnamidopropyl (2-hydroxypropyl trimethyl ammonium chloride) dimonium chloride]	–	–	–	–	–	–	Molar extinction coefficient, ∈ ([7]; in water, at 290 nm): 22,000 mol^−1cm^−1
COc1ccc(C=CC(=O)NCCCN(C)C)cc1 [Example 1, p-methoxycinnamido propyldimethylamine]	–	–	–	–	–	–	Molar extinction coefficient, ∈ ([7]; in methanol, at 290 nm): 24,224
